Target: T1, Tyrosine-protein kinase receptor TYRO3 (Homo sapiens) (UniProt Q06418)
T1 sequence (whole entry): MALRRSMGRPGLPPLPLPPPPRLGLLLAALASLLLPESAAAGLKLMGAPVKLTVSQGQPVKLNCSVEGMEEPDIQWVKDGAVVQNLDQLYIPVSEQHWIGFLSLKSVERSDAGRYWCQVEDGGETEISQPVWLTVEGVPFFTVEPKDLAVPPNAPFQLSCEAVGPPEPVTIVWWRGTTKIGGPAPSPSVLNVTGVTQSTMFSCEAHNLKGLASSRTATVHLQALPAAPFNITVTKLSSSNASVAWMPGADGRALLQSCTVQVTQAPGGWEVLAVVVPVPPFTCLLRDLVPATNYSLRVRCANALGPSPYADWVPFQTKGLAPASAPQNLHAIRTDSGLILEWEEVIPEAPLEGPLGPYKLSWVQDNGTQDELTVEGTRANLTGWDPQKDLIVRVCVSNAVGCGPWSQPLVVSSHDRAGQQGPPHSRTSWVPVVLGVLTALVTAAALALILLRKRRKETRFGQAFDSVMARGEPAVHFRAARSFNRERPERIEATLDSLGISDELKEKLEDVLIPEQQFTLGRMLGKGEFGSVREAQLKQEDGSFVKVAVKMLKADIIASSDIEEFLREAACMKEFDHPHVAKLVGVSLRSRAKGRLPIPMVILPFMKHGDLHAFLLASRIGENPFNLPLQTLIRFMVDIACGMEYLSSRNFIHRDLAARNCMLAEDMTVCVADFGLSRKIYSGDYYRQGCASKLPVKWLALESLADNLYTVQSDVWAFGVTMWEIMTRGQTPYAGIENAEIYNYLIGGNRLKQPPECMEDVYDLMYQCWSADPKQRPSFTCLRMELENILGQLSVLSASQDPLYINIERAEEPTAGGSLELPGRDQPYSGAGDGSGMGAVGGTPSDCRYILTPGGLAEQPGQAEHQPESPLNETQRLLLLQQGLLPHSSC
Details: 10 uM
Description: Inhibition of RSE at 10 uM

Compound: Nc1nccc2cc(O[C@H]3CCCNC3)ccc12
- inhibition: > 80%
